# Results from patent publication US4371537A, “Sulfur-substituted phenoxypyridines having antiviral activity” (The Dow Chemical Company, priority 1981, dated 1983).
# Assays:
# [1] = system: rhinovirus type 1A (RV-1A); assay: Tissue culture testing, rhinovirus type 1A in HeLa cells; assay type: cell-based; settings: Enterovirus, 48 and 72 hours, NA = not active at the standard test conditions, read-out: RV-1A: lowest concentration of the compound necessary to cause a 50 percent reduction in cytopathic effect
# Summary of the method: (§1)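 Treatment preceded infection: HeLa cell monolayers took up compound in Eagle's medium containing fetal calf serum, and virus was then applied. Uninfected cultures and cultures without compound acted as references.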
# rhinovirus type 2 (RV-2) = assay: Tissue culture testing, rhinovirus type 2 in HeLa cells; assay type: cell-based; settings: Enterovirus, 48 and 72 hours, NA = not active at the standard test conditions, read-out: RV-2: lowest concentration of the compound necessary to cause a 50 percent reduction in cytopathic effect
# Summary of the method: as §1
# Rhinovirus Type 81 = assay: Inhibition of cytopathic effect in WI-38 cell culture tubes, rhinovirus type 81; assay type: cell-based; settings: Enterovirus, WI-38 cells, read-out: Inhibition grade, Rhinovirus Type 81; for inhibition at 25 µg/mL: 25 μg/ml
# Experimental: (§2) The test compound was dissolved in an appropriate solvent (generally dimethyl sulfoxide) and incubated at 56° C. for at least 15 minutes and this solution was then used to prepare various test solutions having the desired concentration of test compound in preheated WI maintenance medium (49% Eagles, 49% medium 199, 2% fetal calf serum and antibiotics).
# (§3) Triplicate cell culture tubes (WI-38 human embryonic lung cell culture tubes) were fed with 1 ml of medium containing the compound at specified concentrations and inoculated with 3-300 TCID50 (3-300 times the tissue culture infective dose 50, i.e., the dose required to infect 50% of the cell cultures tested). Simultaneous viral titrations were performed. The tissue cultures were supplemented with fresh medium when necessary (around 3-4 days) until viral titrations were completed.
# (§4) The cell culture tubes were examined dialy for cytopathic effect. […] Comparisons were made at that time with the percentage of cell sheet destruction in tubes containing virus compound mixtures. Observed differences of 75% or more were graded "+", 74-50% as "±", and less than 50% as "-" inhibition.
# Rhinovirus Type 74 = assay: Inhibition of cytopathic effect in WI-38 cell culture tubes, rhinovirus type 74; assay type: cell-based; settings: Enterovirus, WI-38 cells, read-out: Inhibition grade, Rhinovirus Type 74; for inhibition at 25 µg/mL: 25 μg/ml
# Experimental: as §2, §3, §4
# Coxsackie A21 virus = assay: Continuous Oral Feeding test in mice challenged IP with Coxsackie A21 virus; assay type: in vivo; settings: po, 0.06 % in diet, 240 h
# Summary of the method: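 Activity judged by chi-square on 10-day deaths versus untreated controls, with values above 3.84 counted active at 95% confidence. The IP challenge (0.2 ml/mouse, HeLa-grown virus, 80 to 100% lethal in 8 to 12 g mice) came on day 1, after diet containing 0.06% (weight percent) compound began on day 0.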
# Rhinovirus Type 19 = assay: Inhibition of cytopathic effect in WI-38 cell culture tubes, rhinovirus type 19; assay type: cell-based; settings: Enterovirus, WI-38 cells, read-out: Inhibition grade, Rhinovirus Type 19; for inhibition at 25 µg/mL: 25 μg/ml
# Experimental: as §2, §3, §4
# Rhinovirus Type 13 = assay: Inhibition of cytopathic effect in WI-38 cell culture tubes, rhinovirus type 13; assay type: cell-based; settings: Enterovirus, WI-38 cells, read-out: Inhibition grade, Rhinovirus Type 13; for inhibition at 25 µg/mL: 25 μg/ml
# Experimental: as §2, §3, §4
# rhinovirus type 8 (RV-8) = assay: Tissue culture testing, rhinovirus type 8 in HeLa cells; assay type: cell-based; settings: Enterovirus, 48 and 72 hours, NA = not active at the standard test conditions, read-out: RV-8: lowest concentration of the compound necessary to cause a 50 percent reduction in cytopathic effect
# Experimental: (§5) Monolayered HeLa cells in 16 millimeter (mm) tissue culture dishes were treated with 1 ml of culture medium (Eagles medium supplemented with fetal calf serum) containing subject compound at an appropriate concentration or containing no compound at all. Culture media such as those described herein are more fully described in standard texts, as for example, Kuchler's Biochemical Methods in Cell Culture and Virology, Dowden, Hutchinson and Ross, Inc., Stroudsberg, PA (1977). Following treatment, cells were challenged with 0.05 ml of rhinovirus type 1A (RV-1A), rhinovirus type 2 (RV-2) or Coxsackie A21 virus (Cox A21) in culture medium. Some of the compounds were also tested against rhinovirus type 5 (RV-5), rhinovirus type 8 (RV-8) or rhinovirus type 64 (RV-64). Cell controls received no viruses.
# (§6) ^2 Lowest concentration of the compound (μg/ml) necessary to cause
# Rhinovirus Type 17 = assay: Inhibition of cytopathic effect in WI-38 cell culture tubes, rhinovirus type 17; assay type: cell-based; settings: Enterovirus, WI-38 cells, read-out: Inhibition grade, Rhinovirus Type 17; for inhibition at 25 µg/mL: 25 μg/ml
# Experimental: as §2, §3, §4
# Rhinovirus Type 8 = assay: Inhibition of cytopathic effect in WI-38 cell culture tubes, rhinovirus type 8; assay type: cell-based; settings: Enterovirus, WI-38 cells, read-out: Inhibition grade, Rhinovirus Type 8; for inhibition at 25 µg/mL: 25 μg/ml
# Experimental: as §2, §3, §4
# [2] = system: rhinovirus type 64 (RV-64); assay: Tissue culture testing, rhinovirus type 64 in HeLa cells; assay type: cell-based; settings: Enterovirus, 48 and 72 hours, NA = not active at the standard test conditions, read-out: RV-64: lowest concentration of the compound necessary to cause a 50 percent reduction in cytopathic effect
# Experimental: as §5, §6
# Rhinovirus Type 59 = assay: Inhibition of cytopathic effect in WI-38 cell culture tubes, rhinovirus type 59; assay type: cell-based; settings: Enterovirus, WI-38 cells, read-out: Inhibition grade, Rhinovirus Type 59; for inhibition at 25 µg/mL: 25 μg/ml
# Experimental: as §2, §3, §4
# Rhinovirus Type 10 = assay: Inhibition of cytopathic effect in WI-38 cell culture tubes, rhinovirus type 10; assay type: cell-based; settings: Enterovirus, WI-38 cells, read-out: Inhibition grade, Rhinovirus Type 10; for inhibition at 25 µg/mL: 25 μg/ml
# Experimental: as §2, §3, §4
# Rhinovirus Type 39 = assay: Inhibition of cytopathic effect in WI-38 cell culture tubes, rhinovirus type 39; assay type: cell-based; settings: Enterovirus, WI-38 cells, read-out: Inhibition grade, Rhinovirus Type 39; for inhibition at 25 µg/mL: 25 μg/ml
# Experimental: as §2, §3, §4
# [3] = system: Coxsackie A21 virus (Cox A21); assay: Tissue culture testing, Coxsackie A21 virus in HeLa cells; assay type: cell-based; settings: 48 and 72 hours, NA = not active at the standard test conditions, read-out: Cox A21: lowest concentration of the compound necessary to cause a 50 percent reduction in cytopathic effect
# Summary of the method: as §1
# Rhinovirus Type 56 = assay: Inhibition of cytopathic effect in WI-38 cell culture tubes, rhinovirus type 56; assay type: cell-based; settings: Enterovirus, WI-38 cells, read-out: Inhibition grade, Rhinovirus Type 56; for inhibition at 25 µg/mL: 25 μg/ml
# Experimental: as §2, §3, §4
# Rhinovirus Type 60 = assay: Inhibition of cytopathic effect in WI-38 cell culture tubes, rhinovirus type 60; assay type: cell-based; settings: Enterovirus, WI-38 cells, read-out: Inhibition grade, Rhinovirus Type 60; for inhibition at 25 µg/mL: 25 μg/ml
# Experimental: as §2, §3, §4
# Rhinovirus Type 21 = assay: Inhibition of cytopathic effect in WI-38 cell culture tubes, rhinovirus type 21; assay type: cell-based; settings: Enterovirus, WI-38 cells, read-out: Inhibition grade, Rhinovirus Type 21; for inhibition at 25 µg/mL: 25 μg/ml
# Experimental: as §2, §3, §4
# Rhinovirus Type 58 = assay: Inhibition of cytopathic effect in WI-38 cell culture tubes, rhinovirus type 58; assay type: cell-based; settings: Enterovirus, WI-38 cells, read-out: Inhibition grade, Rhinovirus Type 58; for inhibition at 25 µg/mL: 25 μg/ml
# Experimental: as §2, §3, §4
# Rhinovirus Type 75 = assay: Inhibition of cytopathic effect in WI-38 cell culture tubes, rhinovirus type 75; assay type: cell-based; settings: Enterovirus, WI-38 cells, read-out: Inhibition grade, Rhinovirus Type 75; for inhibition at 25 µg/mL: 25 μg/ml
# Experimental: as §2, §3, §4
Structure (SMILES),EC50 [1],EC50 (rhinovirus type 2 (RV-2)),inhibition at 25 µg/mL (Rhinovirus Type 81),inhibition at 25 µg/mL (Rhinovirus Type 74),"Continuous Oral Feeding X^2 (chi-square, deaths vs control) (Coxsackie A21 virus)",inhibition at 25 µg/mL (Rhinovirus Type 19),inhibition at 25 µg/mL (Rhinovirus Type 13),EC50 (rhinovirus type 8 (RV-8)),inhibition at 25 µg/mL (Rhinovirus Type 17),inhibition at 25 µg/mL (Rhinovirus Type 8),EC50 [2],inhibition at 25 µg/mL (Rhinovirus Type 59),inhibition at 25 µg/mL (Rhinovirus Type 10),inhibition at 25 µg/mL (Rhinovirus Type 39),EC50 [3],inhibition at 25 µg/mL (Rhinovirus Type 56),inhibition at 25 µg/mL (Rhinovirus Type 60),inhibition at 25 µg/mL (Rhinovirus Type 21),inhibition at 25 µg/mL (Rhinovirus Type 58),inhibition at 25 µg/mL (Rhinovirus Type 75),also measured
"CS(=O)(=O)c1ccc(Oc2ccc(C(=O)c3ccccc3)cc2)nc1 [Example 31, (4-((5-(methylsulfonyl)-2-pyridinyl)oxy)phenyl)phenylmethanone]",12.5 µg/mL,5 µg/mL,≥ 75%,≥ 75%,24.397,≥ 75%,< 50%,6.25 µg/mL,≥ 75%,< 50%,2.5 µg/mL,≥ 75%,≥ 75%,< 50%,0.125 µg/mL,≥ 75%,≥ 75%,50 to 74%,≥ 75%,< 50%,–
"CCS(=O)(=O)c1ccc(Oc2ccc(Cl)cc2)nc1 [Example 42, 2-(4-chlorophenoxy)-5-(ethylsulfonyl)pyridine]",6.25 µg/mL,3.12 µg/mL,–,–,17.64,–,–,~50 µg/mL,–,–,≤ 3.12 µg/mL,–,–,–,3.12 µg/mL,–,–,–,–,–,inhibition at 12.5 µg/mL (Rhinovirus Type 81; 12.5 μg/ml): ≥ 75%; inhibition at 12.5 µg/mL (Rhinovirus Type 74; 12.5 μg/ml): ≥ 75%; inhibition at 12.5 µg/mL (Rhinovirus Type 19; 12.5 μg/ml): ≥ 75%; inhibition at 12.5 µg/mL (Rhinovirus Type 13; 12.5 μg/ml): < 50%; inhibition at 12.5 µg/mL (Rhinovirus Type 17; 12.5 μg/ml): ≥ 75%; inhibition at 12.5 µg/mL (Rhinovirus Type 8; 12.5 μg/ml): < 50%; inhibition at 12.5 µg/mL (Rhinovirus Type 59; 12.5 μg/ml): ≥ 75%; inhibition at 12.5 µg/mL (Rhinovirus Type 10; 12.5 μg/ml): 50 to 74%; inhibition at 12.5 µg/mL (Rhinovirus Type 39; 12.5 μg/ml): < 50%; inhibition at 12.5 µg/mL (Rhinovirus Type 56; 12.5 μg/ml): 50 to 74%; inhibition at 12.5 µg/mL (Rhinovirus Type 60; 12.5 μg/ml): ≥ 75%; inhibition at 12.5 µg/mL (Rhinovirus Type 21; 12.5 μg/ml): 50 to 74%; inhibition at 12.5 µg/mL (Rhinovirus Type 58; 12.5 μg/ml): ≥ 75%; inhibition at 12.5 µg/mL (Rhinovirus Type 75; 12.5 μg/ml): 50 to 74%
"CCS(=O)(=O)c1ccc(Oc2ccc(C(=O)c3ccccc3)cc2)nc1 [Example 43, (4-((5-(ethylsulfonyl)-2-pyridinyl)oxy)phenyl)phenylmethanone]",≤ 3.12 µg/mL,6.25 µg/mL,–,–,20.44,–,–,25 µg/mL,–,–,6.25 µg/mL,–,–,–,< 3.12 µg/mL,–,–,–,–,–,inhibition at 3 µg/mL (Rhinovirus Type 81; 3.0 μg/ml): ≥ 75%; inhibition at 3 µg/mL (Rhinovirus Type 74; 3.0 μg/ml): 50 to 74%; inhibition at 3 µg/mL (Rhinovirus Type 19; 3.0 μg/ml): < 50%; inhibition at 3 µg/mL (Rhinovirus Type 13; 3.0 μg/ml): < 50%; inhibition at 3 µg/mL (Rhinovirus Type 17; 3.0 μg/ml): ≥ 75%; inhibition at 3 µg/mL (Rhinovirus Type 8; 3.0 μg/ml): < 50%; inhibition at 3 µg/mL (Rhinovirus Type 59; 3.0 μg/ml): < 50%; inhibition at 3 µg/mL (Rhinovirus Type 10; 3.0 μg/ml): < 50%; inhibition at 3 µg/mL (Rhinovirus Type 39; 3.0 μg/ml): < 50%; inhibition at 3 µg/mL (Rhinovirus Type 56; 3.0 μg/ml): < 50%; inhibition at 3 µg/mL (Rhinovirus Type 60; 3.0 μg/ml): 50 to 74%; inhibition at 3 µg/mL (Rhinovirus Type 21; 3.0 μg/ml): < 50%; inhibition at 3 µg/mL (Rhinovirus Type 58; 3.0 μg/ml): < 50%; inhibition at 3 µg/mL (Rhinovirus Type 75; 3.0 μg/ml): < 50%
"CCS(=O)(=O)c1ccc(Oc2ccc(Cl)c(Cl)c2)nc1 [Example 47, 2-(3,4-dichlorophenoxy)-5-(ethylsulfonyl)pyridine]",0.312 µg/mL,0.625 µg/mL,≥ 75%,≥ 75%,1.10,≥ 75%,< 50%,–,≥ 75%,< 50%,≤ 0.312 µg/mL,50 to 74%,≥ 75%,50 to 74%,2.5 µg/mL,≥ 75%,≥ 75%,≥ 75%,≥ 75%,< 50%,–
